The record followed here is patent publication US20250179061A1 (SIRONAX LTD., priority 2022, published 2025).

Counter-ions that a name gives are not always drawn. A value given as a limit tells only on which side of the number the result lay.

The assay has as its system HT-29 cells. Briefly: HT-29 necroptosis cell viability assay (TNF-α/SMAC mimetic/zVAD-FMK, CellTiter-Glo). The conditions noted are these: Homo sapiens, HT-29, HT-29 necroptosis cell viability assay; class symbols for IC50; read-out: Activity. The format is cell-based. Put shortly: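 Necroptosis was triggered by TNF-α (10 ng/ml), SMAC mimetic (6 μM) and zVAD-FMK (10 μM) in serum-free medium during 20 h compound exposure (10 concentrations, threefold steps) of HT-29 cells. IC50 from duplicate dose-responses uses CellTiter-Glo ATP luminescence as viability read-out.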

For the molecule `CCOC1CN(c2cc(S(=O)(=O)c3ccc(-n4ncn(Cc5c(F)cccc5F)c4=O)cc3)ccn2)C1` [Example 492, 4-(2,6-difluorobenzyl)-2-(4-((2-(3-ethoxyazetidin-1-yl)pyridin-4-yl)sulfonyl)phenyl)-2,4-dihydro-3H-1,2,4-triazol-3-one], the IC50 was below 100 nM.
The same measure for `CC1(O)CN(c2cc(S(=O)(=O)c3ccc(-n4ncn(Cc5c(F)cccc5F)c4=O)cc3)ccn2)C1` [Example 493, 4-(2,6-difluorobenzyl)-2-(4-((2-(3-hydroxy-3-methylazetidin-1-yl)pyridin-4-yl)sulfonyl)phenyl)-2,4-dihydro-3H-1,2,4-triazol-3-one]: below 100 nM; for `CCOC1CN(c2nccc(Oc3ccc(-n4ncn(Cc5c(F)cccc5F)c4=O)cc3Cl)c2F)C1` [Example 494, 2-(3-chloro-4-((2-(3-ethoxyazetidin-1-yl)-3-fluoropyridin-4-yl)oxy)phenyl)-4-(2,6-difluorobenzyl)-2,4-dihydro-3H-1,2,4-triazol-3-one]: below 100 nM.
Take `CCOC1CN(c2cc(Oc3ccc(-n4ncn(Cc5c(F)cccc5F)c4=O)cc3Cl)c(F)cn2)C1` [Example 495, 2-(3-chloro-4-((2-(3-ethoxyazetidin-1-yl)-5-fluoropyridin-4-yl)oxy)phenyl)-4-(2,6-difluorobenzyl)-2,4-dihydro-3H-1,2,4-triazol-3-one]: the IC50 was below 100 nM.
The figure for `COC1(C)CN(c2cc(Oc3ccc(-n4ncn(Cc5c(F)cccc5F)c4=O)cc3Cl)c(F)cn2)C1` [Example 496, 2-(3-chloro-4-((5-fluoro-2-(3-methoxy-3-methylazetidin-1-yl)pyridin-4-yl)oxy)phenyl)-4-(2,6-difluorobenzyl)-2,4-dihydro-3H-1,2,4-triazol-3-one] is below 100 nM; for `COC1(C)CN(c2nccc(Oc3ccc(-n4ncn(Cc5c(F)cccc5F)c4=O)cc3Cl)c2F)C1` [Example 497, 2-(3-chloro-4-((3-fluoro-2-(3-methoxy-3-methylazetidin-1-yl)pyridin-4-yl)oxy)phenyl)-4-(2,6-difluorobenzyl)-2,4-dihydro-3H-1,2,4-triazol-3-one] it is below 100 nM.
Consider `O=c1n(Cc2c(F)cccc2F)cnn1-c1ccc(Oc2ccnc(N3CCC34CCC4)c2)cc1` [Example 498, 2-(4-((2-(1-azaspiro[3.3]heptan-1-yl)pyridin-4-yl)oxy)phenyl)-4-(2,6-difluorobenzyl)-2,4-dihydro-3H-1,2,4-triazol-3-one], for which the IC50 was 100 to 1000 nM.
The same measure for `CC(C)(C)OC(=O)N1CC2(CCN2c2cc(Oc3ccc(-n4ncn(Cc5c(F)cccc5F)c4=O)cc3)ccn2)C1` [Example 499, tert-butyl 1-(4-(4-(4-(2,6-difluorobenzyl)-5-oxo-4,5-dihydro-1H-1,2,4-triazol-1-yl)phenoxy)pyridin-2-yl)-1,6-diazaspiro[3.3]heptane-6-carboxylate]: 100 to 1000 nM; for `COC1(C)CN(c2cc(Oc3ccc(-n4ncn(Cc5c(F)cccc5F)c4=O)cc3)ccn2)C1` [Example 500, 4-(2,6-difluorobenzyl)-2-(4-((2-(3-methoxy-3-methylazetidin-1-yl)pyridin-4-yl)oxy)phenyl)-2,4-dihydro-3H-1,2,4-triazol-3-one]: below 100 nM.
The figure for `CCOC1(C)CN(c2cc(Oc3ccc(-n4ncn(Cc5c(F)cccc5F)c4=O)cc3Cl)c(F)cn2)C1` [Example 501, 2-(3-chloro-4-((2-(3-ethoxy-3-methylazetidin-1-yl)-5-fluoropyridin-4-yl)oxy)phenyl)-4-(2,6-difluorobenzyl)-2,4-dihydro-3H-1,2,4-triazol-3-one] is below 100 nM; for `CCOC1(C)CN(c2nccc(Oc3ccc(-n4ncn(Cc5c(F)cccc5F)c4=O)cc3Cl)c2F)C1` [Example 502, 2-(3-chloro-4-((2-(3-ethoxy-3-methylazetidin-1-yl)-3-fluoropyridin-4-yl)oxy)phenyl)-4-(2,6-difluorobenzyl)-2,4-dihydro-3H-1,2,4-triazol-3-one] it is below 100 nM; for `CCOC1(C)CN(c2nccc(Oc3ccc(-n4ncn(Cc5c(F)cccc5F)c4=O)cc3Cl)c2Cl)C1` [Example 503, 2-(3-chloro-4-((3-chloro-2-(3-ethoxy-3-methylazetidin-1-yl)pyridin-4-yl)oxy)phenyl)-4-(2,6-difluorobenzyl)-2,4-dihydro-3H-1,2,4-triazol-3-one] it is below 100 nM.
Turning to `CCOC1(C)CN(c2cc(Oc3ccc(-n4ncn(Cc5c(F)cccc5F)c4=O)cc3Cl)c(Cl)cn2)C1` [Example 504, 2-(3-chloro-4-((5-chloro-2-(3-ethoxy-3-methylazetidin-1-yl)pyridin-4-yl)oxy)phenyl)-4-(2,6-difluorobenzyl)-2,4-dihydro-3H-1,2,4-triazol-3-one], the IC50 is below 100 nM.
The same measure for `CC1(OC(F)(F)F)CN(c2cc(Oc3ccc(-n4ncn(Cc5c(F)cccc5F)c4=O)cc3F)c(F)cn2)C1` [Example 505, 4-(2,6-difluorobenzyl)-2-(3-fluoro-4-((5-fluoro-2-(3-methyl-3-(trifluoromethoxy)azetidin-1-yl)pyridin-4-yl)oxy)phenyl)-2,4-dihydro-3H-1,2,4-triazol-3-one]: below 100 nM; for `CC1(OC(F)(F)F)CN(c2cc(Oc3ccc(-n4ncn(Cc5c(F)cccc5F)c4=O)cc3F)c(Cl)cn2)C1` [Example 506, 2-(4-((5-chloro-2-(3-methyl-3-(trifluoromethoxy)azetidin-1-yl)pyridin-4-yl)oxy)-3-fluorophenyl)-4-(2,6-difluorobenzyl)-2,4-dihydro-3H-1,2,4-triazol-3-one]: below 100 nM; for `Cc1nc(N2CC(C)(N)C2)sc1C(=O)c1ccc(-n2ncn(Cc3c(F)cccc3F)c2=O)cc1` [Example 507, 2-(4-(2-(3-amino-3-methylazetidin-1-yl)-4-methylthiazole-5-carbonyl)phenyl)-4-(2,6-difluorobenzyl)-2,4-dihydro-3H-1,2,4-triazol-3-one trifluoroacetate]: 100 to 1000 nM.
The same measure for `Cc1nc(N2CC(C)(NC(=O)OC(C)(C)C)C2)sc1C(=O)c1ccc(-n2ncn(Cc3c(F)cccc3F)c2=O)cc1` [Example 508, tert-butyl (1-(5-(4-(4-(2,6-difluorobenzyl)-5-oxo-4,5-dihydro-1H-1,2,4-triazol-1-yl)benzoyl)-4-methylthiazol-2-yl)-3-methylazetidin-3-yl)carbamate]: 100 to 1000 nM.
The same measure for `Cc1nc(N2CC(C)(N)C2)sc1Cc1ccc(-n2ncn(Cc3c(F)cccc3F)c2=O)cc1` [Example 509, 2-(4-((2-(3-amino-3-methylazetidin-1-yl)-4-methylthiazol-5-yl)methyl)phenyl)-4-(2,6-difluorobenzyl)-2,4-dihydro-3H-1,2,4-triazol-3-one]: below 100 nM; for `Cc1nc(N2CC(C)(C#N)C2)sc1C(=O)c1ccc(-n2ncn(Cc3c(F)cccc3F)c2=O)cc1` [Example 510, 1-(5-(4-(4-(2,6-difluorobenzyl)-5-oxo-4,5-dihydro-1H-1,2,4-triazol-1-yl)benzoyl)-4-methylthiazol-2-yl)-3-methylazetidine-3-carbonitrile]: 100 to 1000 nM; for `Cc1nc(N2CC(C)(C#N)C2)sc1C(O)c1ccc(-n2ncn(Cc3c(F)cccc3F)c2=O)cc1` (stereo not drawn) [Example 511, 1-(5-((4-(4-(2,6-difluorobenzyl)-5-oxo-4,5-dihydro-1H-1,2,4-triazol-1-yl)phenyl)(hydroxy)methyl)-4-methylthiazol-2-yl)-3-methylazetidine-3-carbonitrile]: 1000 to 10000 nM.
In the case of `Cc1nc(N2CC(C)(C#N)C2)sc1Cc1ccc(-n2ncn(Cc3c(F)cccc3F)c2=O)cc1` [Example 512, 1-(5-(4-(4-(2,6-difluorobenzyl)-5-oxo-4,5-dihydro-1H-1,2,4-triazol-1-yl)benzyl)-4-methylthiazol-2-yl)-3-methylazetidine-3-carbonitrile], the IC50 is below 100 nM.
For `Cc1nc(N2CC(C)(N)C2)sc1C(C)c1ccc(-n2ncn(Cc3c(F)cccc3F)c2=O)cc1` (stereo not drawn) [Example 513, 2-[4-[1-[2-(3-amino-3-methyl-azetidin-1-yl)-4-methyl-thiazol-5-yl]ethyl]phenyl]-4-[(2,6-difluorophenyl)methyl]-1,2,4-triazol-3-one; 2,2,2-trifluoroacetic acid], the IC50 was 100 to 1000 nM.
Regarding `Cc1nc(N2CC(C)(NC(=O)OC(C)(C)C)C2)sc1C(C)c1ccc(-n2ncn(Cc3c(F)cccc3F)c2=O)cc1` (stereo not drawn) [Example 514, tert-butyl (1-(5-(1-(4-(4-(2,6-difluorobenzyl)-5-oxo-4,5-dihydro-1H-1,2,4-triazol-1-yl)phenyl)ethyl)-4-methylthiazol-2-yl)-3-methylazetidin-3-yl)carbamate], the IC50 was below 100 nM.
With `Cc1nc(N2CC(C)(NC(=O)OC(C)(C)C)C2)sc1C(C)(O)c1ccc(-n2ncn(Cc3c(F)cccc3F)c2=O)cc1` (stereo not drawn) [Example 516, tert-butyl (1-(5-(1-(4-(4-(2,6-difluorobenzyl)-5-oxo-4,5-dihydro-1H-1,2,4-triazol-1-yl)phenyl)-1-hydroxyethyl)-4-methylthiazol-2-yl)-3-methylazetidin-3-yl)carbamate], the IC50 is below 100 nM.
For the molecule `CCOC1CN(c2nn(C)c(Oc3ccc(-n4ncn(Cc5c(F)cccc5F)c4=O)cc3)c2N)C1` [Example 517, 2-(4-((4-amino-3-(3-ethoxyazetidin-1-yl)-1-methyl-1H-pyrazol-5-yl)oxy)phenyl)-4-(2,6-difluorobenzyl)-2,4-dihydro-3H-1,2,4-triazol-3-one], the IC50 fell in the range of 1000 to 10000 nM.
The figure for `Cc1ncc(C#N)cc1Oc1ccc(-n2ncn(Cc3c(F)cccc3F)c2=O)cc1` [Example 518, 5-(4-(4-(2,6-difluorobenzyl)-5-oxo-4,5-dihydro-1H-1,2,4-triazol-1-yl)phenoxy)-6-methylnicotinonitrile] is 1000 to 10000 nM; for `CC(C)(C)CC(=O)Nc1cc(Oc2ccc(-n3ncn(Cc4c(F)cccc4F)c3=O)cc2)ccn1` [Example 519, N-[4-[4-[4-[(2,6-difluorophenyl)methyl]-5-oxo-1,2,4-triazol-1-yl]phenoxy]-2-pyridyl]-3,3-dimethyl-butanamide] it is 100 to 1000 nM.
